Measured values: patent publication US10744181B2, “Glycopeptide derivatives for use in the treatment and/or prevention and/or attenuation of fibrosis diseases” (TFCHEM, priority 2017, dated 2020)
Marks after values point to notes of the source that are not given here.

How the values were obtained:
Format in all cases: cell-based, human
Collagen I = Collagen I synthesis (ELISA) in normal fibroblasts; details: normal fibroblasts (NF), compound at 9.4 mM, 48 hours; pg collagen I per mg proteins
Method: (§1) Primary cultures of keloid fibroblasts (KF) and normal fibroblasts (NF) were obtained from operative wastes (keloid and abdominoplasty). After thawing, cells were grown in Dulbecco's modified Eagle's medium (DMEM) supplemented with 10% of fetal calf serum, 40 mg/l of gentamicin and 2 mg/l of fungizone (DMEMc), in an incubator at 37° C., 5% CO2. Culture medium was changed twice a week and cells were subcultured by trypsinization when confluence was reached. Cells were used under 10 passages.
(§2) Compound 1 was directly diluted in culture medium at 5 mg/ml.
(§3) Fibroblasts were seeded in 6 wells culture plate at the concentration of 0.08·10^6 cells/well (n=6). […]
(§4) The synthetized collagen quantity is expressed as the ratio of quantity of collagen vs quantity of total proteins in the sample.
(§5) The quantity of total protein was determined using a biochemical test, the bicinchoninic acid assay (BCA assay). […] Absorbance is read immediately at 550 nm (Spectrophotometer Multiscan Ex, Thermo). The standard curve is drawn and the sample protein concentration is determined with this curve. […]
(§6) Collagen I synthesis was evaluated by Enzyme-linked immunosorbent assay with an ELISA kit (USCN SEA571Hu, Euromedex). […] The enzyme-substrate reaction is terminated by the addition of sulfuric acid solution and the color change is measured spectrophotometrically at 450 nm. […]
(§7) Data are expressed as mean+/−sem. […]

Collagen III = Collagen III synthesis (ELISA) in normal fibroblasts; details: normal fibroblasts (NF), compound at 9.4 mM, 48 hours; ng collagen III per mg proteins
Method: as §1, §2, §3, §4, §5
Collagen III synthesis is performed by Enzyme-linked immunosorbent assay with an ELISA kit (USCN SEA576Hu, Euromedex). […] The enzyme-substrate reaction is terminated by the addition of sulfuric acid solution and the color change is measured spectrophotometrically at 450 nm. […]
as §7

[1] = system: collagen I/collagen III ratio; assay: Collagen I/collagen III ratio in normal fibroblasts; details: normal fibroblasts (NF), compound at 9.4 mM
Method: as §1, §2
Fibroblasts were seeded in 6 wells culture plate at the concentration of 0.08·10^6 cells/well (n=6). After 48 hours of culture, wells were washed with 3 ml of PBS. 2 ml of each solution of tested compound were added per wells. […]
as §4
as §6, with “nm. The concentration of collagen I in the samples is then determined by comparing the optical density of the samples to the standard curve. The results were expressed as pg of collagen I by mg of proteins.” for “nm.”

C[C@H](NC(=O)[C@H](C)NC(=O)[C@@H](N)CCCCNCC(F)(F)[C@]1(O)O[C@H](CO)[C@H](O)[C@H](O)[C@H]1O)C(=O)O [Compound 1]
Protein Collagen I, Mean (Collagen I): 28.85*** pg/mg
Protein Collagen III, Mean (Collagen III): 6.57*** ng/mg
Ratio collagen I/collagen III [1]: 4.39.10^−3
